Source: BindingDB's records for doi:10.1016/s0028-3908(97)00038-5 (Smithkline Beecham Pharmaceuticals, 1997)

How the values were obtained:
[1] = biological target: 5-hydroxytryptamine receptor 7 (Homo sapiens, UniProt P34969)
[2] = biological target: 5-hydroxytryptamine receptor 1B (Cricetulus griseus, UniProt P46636)
[3] = biological target: 5-hydroxytryptamine receptor 4 (Sus scrofa, UniProt Q29006)
D(3) dopamine receptor = D(3) dopamine receptor (Cricetulus griseus, UniProt A0A3Q0CXS4)
D(2) dopamine receptor = D(2) dopamine receptor (Mesocricetus auratus, UniProt A0A1U7QAF5)
[4] = biological target: T1, Alpha-1B adrenergic receptor (Mesocricetus auratus, UniProt P18841)
T1 sequence (P18841 whole entry): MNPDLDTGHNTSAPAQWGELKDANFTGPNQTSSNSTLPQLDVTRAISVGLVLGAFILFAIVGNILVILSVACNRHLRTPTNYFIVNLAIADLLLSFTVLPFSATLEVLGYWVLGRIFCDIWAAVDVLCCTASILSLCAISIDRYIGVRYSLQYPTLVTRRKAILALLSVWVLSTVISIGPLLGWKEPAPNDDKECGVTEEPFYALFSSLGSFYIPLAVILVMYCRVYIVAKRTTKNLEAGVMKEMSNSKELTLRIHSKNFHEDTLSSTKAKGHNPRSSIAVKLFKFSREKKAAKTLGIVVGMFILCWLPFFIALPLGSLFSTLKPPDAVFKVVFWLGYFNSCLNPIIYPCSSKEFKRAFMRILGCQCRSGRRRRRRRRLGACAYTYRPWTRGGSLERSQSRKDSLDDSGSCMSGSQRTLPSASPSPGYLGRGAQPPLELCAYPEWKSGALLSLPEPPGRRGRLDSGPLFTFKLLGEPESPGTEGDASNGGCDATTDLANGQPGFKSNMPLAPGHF

[5] = biological target: Tyrosine-protein kinase Fyn (Homo sapiens, UniProt P06241)
Tyrosine-protein kinase Fyn, sequence (P06241 whole entry): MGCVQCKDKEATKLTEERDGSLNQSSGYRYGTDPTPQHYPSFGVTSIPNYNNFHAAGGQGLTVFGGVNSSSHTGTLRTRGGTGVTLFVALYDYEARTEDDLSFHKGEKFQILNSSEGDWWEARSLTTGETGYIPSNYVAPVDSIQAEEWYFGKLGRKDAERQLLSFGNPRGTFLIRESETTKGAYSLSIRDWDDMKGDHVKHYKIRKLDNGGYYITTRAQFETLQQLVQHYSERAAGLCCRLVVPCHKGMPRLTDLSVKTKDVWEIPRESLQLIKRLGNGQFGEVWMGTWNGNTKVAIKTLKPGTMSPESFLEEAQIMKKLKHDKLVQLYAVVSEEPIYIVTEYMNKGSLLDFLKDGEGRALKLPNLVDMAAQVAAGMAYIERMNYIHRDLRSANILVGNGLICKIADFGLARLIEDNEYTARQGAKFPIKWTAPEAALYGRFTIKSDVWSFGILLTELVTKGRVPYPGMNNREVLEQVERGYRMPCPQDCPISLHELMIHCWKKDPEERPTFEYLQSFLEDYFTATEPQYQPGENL

5-hydroxytryptamine receptor 7, sequence (P34969 whole entry): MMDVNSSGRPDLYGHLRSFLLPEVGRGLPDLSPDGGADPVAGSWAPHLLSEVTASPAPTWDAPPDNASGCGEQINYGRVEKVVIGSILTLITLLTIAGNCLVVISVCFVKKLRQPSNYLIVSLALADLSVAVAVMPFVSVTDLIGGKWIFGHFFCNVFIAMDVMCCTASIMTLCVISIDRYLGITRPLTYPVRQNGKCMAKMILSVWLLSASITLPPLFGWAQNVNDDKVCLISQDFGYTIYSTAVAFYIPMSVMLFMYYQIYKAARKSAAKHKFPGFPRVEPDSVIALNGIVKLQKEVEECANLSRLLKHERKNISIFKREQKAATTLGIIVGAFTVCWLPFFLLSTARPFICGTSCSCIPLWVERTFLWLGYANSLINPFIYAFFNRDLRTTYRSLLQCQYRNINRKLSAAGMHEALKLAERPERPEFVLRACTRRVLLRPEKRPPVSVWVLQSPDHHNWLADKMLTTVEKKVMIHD
D(2) dopamine receptor, sequence (A0A1U7QAF5 whole entry): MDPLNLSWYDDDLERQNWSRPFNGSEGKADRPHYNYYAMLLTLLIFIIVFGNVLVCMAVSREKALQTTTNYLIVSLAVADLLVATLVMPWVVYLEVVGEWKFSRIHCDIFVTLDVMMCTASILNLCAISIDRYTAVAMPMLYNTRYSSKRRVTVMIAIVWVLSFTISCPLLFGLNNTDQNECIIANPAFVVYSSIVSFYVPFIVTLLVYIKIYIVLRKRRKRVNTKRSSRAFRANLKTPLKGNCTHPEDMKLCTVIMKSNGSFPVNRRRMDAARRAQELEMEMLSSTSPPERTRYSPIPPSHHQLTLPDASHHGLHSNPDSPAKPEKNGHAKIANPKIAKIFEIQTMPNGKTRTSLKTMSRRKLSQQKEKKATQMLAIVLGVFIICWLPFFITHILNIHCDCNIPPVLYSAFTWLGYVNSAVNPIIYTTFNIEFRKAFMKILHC
5-hydroxytryptamine receptor 4, sequence (Q29006 whole entry): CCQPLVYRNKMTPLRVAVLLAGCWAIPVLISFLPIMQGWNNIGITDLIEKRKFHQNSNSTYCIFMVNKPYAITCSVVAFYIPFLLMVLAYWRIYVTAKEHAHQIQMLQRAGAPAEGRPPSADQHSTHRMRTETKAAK
D(3) dopamine receptor, sequence (A0A3Q0CXS4 whole entry): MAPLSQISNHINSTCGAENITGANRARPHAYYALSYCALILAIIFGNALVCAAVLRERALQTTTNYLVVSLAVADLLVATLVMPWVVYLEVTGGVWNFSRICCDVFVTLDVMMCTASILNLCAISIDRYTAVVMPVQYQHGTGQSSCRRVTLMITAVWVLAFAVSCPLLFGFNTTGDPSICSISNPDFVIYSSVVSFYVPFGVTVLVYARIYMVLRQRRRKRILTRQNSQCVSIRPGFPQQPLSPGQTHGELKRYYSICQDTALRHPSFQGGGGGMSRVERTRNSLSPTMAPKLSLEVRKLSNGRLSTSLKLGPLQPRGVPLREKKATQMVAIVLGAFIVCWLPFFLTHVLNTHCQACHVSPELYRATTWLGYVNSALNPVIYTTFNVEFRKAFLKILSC
5-hydroxytryptamine receptor 1B, sequence (P46636 whole entry): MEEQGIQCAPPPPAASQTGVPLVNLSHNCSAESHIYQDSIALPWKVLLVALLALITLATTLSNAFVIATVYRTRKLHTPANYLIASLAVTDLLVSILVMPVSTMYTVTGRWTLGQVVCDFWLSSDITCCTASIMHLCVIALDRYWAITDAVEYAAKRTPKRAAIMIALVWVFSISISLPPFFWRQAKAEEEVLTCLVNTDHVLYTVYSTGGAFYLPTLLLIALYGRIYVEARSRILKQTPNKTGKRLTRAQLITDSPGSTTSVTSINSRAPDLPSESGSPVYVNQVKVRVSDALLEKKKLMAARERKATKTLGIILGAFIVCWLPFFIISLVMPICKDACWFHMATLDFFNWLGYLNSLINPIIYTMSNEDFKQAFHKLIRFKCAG

Ki [1]: 794 nM
Ki [2]: 398 nM
Ki [3]: 3160 nM
Ki (D(3) dopamine receptor): 631 nM
Ki (D(2) dopamine receptor): 631 nM
Ki [4]: > 10000 nM
Ki [5]: 1000 nM
SMILES: Cc1cc2c(cc1Cl)N(C(=O)Nc1ccc(Oc3cccnc3C)nc1)CC2 [CAS_181632-25-7]
